Experiments:
Rattus norvegicus [1] = assay: In vivo effective dose for the reversal of tryptamine-induced bilateral convulsions in rat; format: functional
Rattus norvegicus [2] = assay: In vivo effective dose for the reversal of tryptamine-induced cyanosis in rat; format: functional
Rattus norvegicus [3] = assay: In vivo effective for the antagonism of m-chlorophenyl-piperazine induced anxiety in rat; format: functional
Mus musculus = assay: In vivo effective dose for the reversal of RO-4-1284 induced hypothermia in mice; format: functional
[4] = target: T1, 5-hydroxytryptamine receptor 2C (Homo sapiens, UniProt P28335); assay: In vitro binding affinity against 5-hydroxytryptamine 2C receptor using [3H]mesulergine as radioligand expressed in CHO cells; format: cell-based
T1 sequence (P28335 whole entry): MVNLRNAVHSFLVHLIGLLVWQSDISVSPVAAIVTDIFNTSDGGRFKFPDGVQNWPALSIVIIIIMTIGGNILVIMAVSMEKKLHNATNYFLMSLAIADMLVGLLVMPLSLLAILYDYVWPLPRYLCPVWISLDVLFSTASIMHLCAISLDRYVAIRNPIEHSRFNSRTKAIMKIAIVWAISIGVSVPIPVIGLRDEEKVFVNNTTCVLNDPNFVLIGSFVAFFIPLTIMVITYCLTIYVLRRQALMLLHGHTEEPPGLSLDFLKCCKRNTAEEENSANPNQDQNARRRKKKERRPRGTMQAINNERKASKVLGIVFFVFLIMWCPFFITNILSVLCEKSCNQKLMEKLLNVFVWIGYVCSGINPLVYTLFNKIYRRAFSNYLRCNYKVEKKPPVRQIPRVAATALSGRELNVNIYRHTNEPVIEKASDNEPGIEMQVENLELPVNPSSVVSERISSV

[5] = target: 5-hydroxytryptamine receptor 2A (Homo sapiens, UniProt P28223); assay: In vitro binding affinity against 5-hydroxytryptamine 2A receptor using [125I]R91150 as radioligand expressed in L929 cells; format: cell-based
Chain of 5-hydroxytryptamine receptor 2A (P28223 whole entry): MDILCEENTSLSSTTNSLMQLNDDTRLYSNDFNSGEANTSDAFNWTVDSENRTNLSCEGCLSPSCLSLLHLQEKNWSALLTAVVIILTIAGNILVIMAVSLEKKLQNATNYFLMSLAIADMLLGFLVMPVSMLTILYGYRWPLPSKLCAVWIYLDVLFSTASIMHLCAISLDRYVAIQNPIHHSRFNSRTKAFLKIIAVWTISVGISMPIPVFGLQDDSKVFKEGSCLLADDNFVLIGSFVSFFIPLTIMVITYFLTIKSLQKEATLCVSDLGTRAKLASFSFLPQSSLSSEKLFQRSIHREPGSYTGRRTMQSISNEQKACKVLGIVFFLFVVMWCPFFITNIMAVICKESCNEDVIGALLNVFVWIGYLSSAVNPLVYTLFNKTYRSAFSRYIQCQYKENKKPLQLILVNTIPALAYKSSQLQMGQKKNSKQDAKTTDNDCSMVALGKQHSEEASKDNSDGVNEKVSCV

Ki [4] [nM] | Ki [5] [nM] | SMILES | ED50 (Rattus norvegicus [1]) [mg/kg] | ED50 (Rattus norvegicus [2]) [mg/kg] | ED50 (Rattus norvegicus [3]) [mg/kg] | ED50 (Mus musculus) [mg/kg]
157 | 95 | CN(C)c1ccc2on(C[C@@H]3C[C@H]4c5ccccc5Oc5ccc(Br)cc5[C@H]4O3)c2c1 | – | – | – | –
183 | 185 | N#Cc1ccc2on(C[C@@H]3C[C@H]4c5ccccc5Oc5ccc(Br)cc5[C@H]4O3)c2c1 | – | – | – | –
> 5450 | 306 | Brc1ccc2c(c1)[C@H]1O[C@H](Cn3oc4ccc(N5CCOCC5)cc43)C[C@H]1c1ccccc1O2 | – | – | – | –
270 | 255 | Nc1ccc2on(C[C@@H]3C[C@H]4c5ccccc5Oc5ccc(Br)cc5[C@H]4O3)c2c1 | – | – | – | –
4100 | 189 | Brc1ccc2c(c1)[C@H]1O[C@H](Cn3oc4ccc(CN5CCOCC5)cc43)C[C@H]1c1ccccc1O2 | – | – | – | –
58 | 36 | Cc1ccc2on(C[C@@H]3C[C@H]4c5ccccc5Oc5ccc(Br)cc5[C@H]4O3)c2c1 | 0.5 | 0.5 | 0.8 | 1.99
356 | 306 | O=C1CCN1c1ccc2on(C[C@@H]3C[C@H]4c5ccccc5Oc5ccc(Br)cc5[C@H]4O3)c2c1 | – | – | – | –

Further lines, the compound ahead of its results:

SMILES | Ki [4] [nM] | Ki [5] [nM] | ED50 (Rattus norvegicus [1]) [mg/kg] | ED50 (Rattus norvegicus [2]) [mg/kg] | ED50 (Rattus norvegicus [3]) [mg/kg] | ED50 (Mus musculus) [mg/kg]
CN(C)C[C@H]1C[C@H]2c3ccccc3Oc3ccc(F)cc3[C@H]2O1 | 63 | 423 | 1.98 | 5 | > 2.5 | 0.13
COc1ccc2c(c1)[C@H]1O[C@H](CN(C)C)C[C@H]1c1ccccc1O2 | – | 22 | 0.32 | 1.26 | > 2.5 | 0.79
CN(C)C[C@H]1C[C@H]2c3ccccc3Oc3ccc(Br)cc3[C@H]2O1 | 87 | – | – | – | – | –
CN(C)C[C@H]1C[C@H]2c3ccccc3Oc3ccc(Cl)cc3[C@H]2O1 | 21 | – | 0.32 | 0.8 | > 2.5 | 0.05
CN(C)C[C@@H]1C[C@H]2c3ccccc3Oc3ccc(Cl)cc3[C@H]2O1 | – | – | 0.08 | 0.2 | > 2.5 | 0.5
CN(C)C[C@H]1C[C@H]2c3ccccc3Oc3ccccc3[C@@H]2O1 | 183 | 92 | 3.15 | > 2.5 | > 2.5 | 1.25
CCOC(=O)c1ccc2on(C[C@@H]3C[C@H]4c5ccccc5Oc5ccc(Br)cc5[C@H]4O3)c2c1 | 246 | 97 | – | – | – | –
CN(C)C[C@H]1C[C@@H]2c3ccccc3Oc3ccccc3[C@H]2O1 | 179 | 16 | > 2.5 | > 2.5 | – | > 2.5
CN(C)C[C@@H]1C[C@H]2c3ccccc3Oc3ccc(Br)cc3[C@H]2O1 | 6 | – | 0.32 | 0.79 | > 2.5 | 3.15
CN(C)C[C@@H]1C[C@H]2c3ccccc3Oc3ccc(F)cc3[C@H]2O1 | – | 104 | 0.5 | 0.5 | 0.5 | 0.02
Brc1ccc2c(c1)[C@H]1O[C@H](Cn3oc4ccc(-c5ccccc5)cc43)C[C@H]1c1ccccc1O2 | 183 | 307 | – | – | – | –
COc1ccc2c(c1)[C@H]1O[C@@H](CN(C)C)C[C@H]1c1ccccc1O2 | 235 | 193 | – | – | – | –

From ChEMBL document CHEMBL1139601, “Novel 2-N,N-dimethylaminomethyl-2,3,3a,12b-tetrahydrodibenzo[b,f]furo[2,3-d]oxepin derivatives displaying combined norepinephrine reuptake inhibition and 5-HT2A/2C receptor antagonism” (Bioorg Med Chem Lett, 2005)
